# From PubChem BioAssay (NCI)
# Several values for one entry are separate records, joined by “and”; a condition that tells them apart may be missing. Equal entries are not always repeated.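 Grown in 96-well plates, cells were treated for 48 hours with each compound at five concentrations. Insufficient inhibition: endpoint recorded as highest concentration tested. Abbreviation: GI50, concentration required for 50% inhibition of growth. At the TGI there is no net growth.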
# Legend:
# Assay in all cases: growth of human tumour cells (NCI), 48 h
# SNB-19 CNS = system: SNB-19 CNS
# HCC-2998 colon = system: HCC-2998 colon
# HT29 colon = system: HT29 colon
# SK-MEL-2 melanoma = system: SK-MEL-2 melanoma
# MDA-MB-231 breast = system: MDA-MB-231 breast
# A498 renal = system: A498 renal
# HCT-116 colon = system: HCT-116 colon
# M14 melanoma = system: M14 melanoma
# DMS 273 small cell lung = system: DMS 273 small cell lung
# DLD-1 colon = system: DLD-1 colon
Structure (SMILES),GI50 (SNB-19 CNS),TGI (SNB-19 CNS),GI50 (HCC-2998 colon),TGI (HCC-2998 colon),GI50 (HT29 colon),TGI (HT29 colon),GI50 (SK-MEL-2 melanoma),TGI (SK-MEL-2 melanoma),GI50 (MDA-MB-231 breast),TGI (MDA-MB-231 breast),GI50 (A498 renal),TGI (A498 renal),GI50 (HCT-116 colon),TGI (HCT-116 colon),GI50 (M14 melanoma),TGI (M14 melanoma),TGI (DMS 273 small cell lung),TGI (DLD-1 colon)
O=C1C=C(OCC=C(C(F)(F)F)C(F)(F)F)c2ccccc2C1=O,5.62 µM,19.5 µM,1.84 µM,3.73 µM,2.4 µM,5.47 µM,1.85 µM,4.06 µM,1.9 µM,4.2 µM,4.36 µM,16.6 µM,2.07 µM,5.08 µM,1.88 µM,3.87 µM,,
Oc1[nH]c2ccccc2c1/C=c1/ccc2c(c1)N=C(c1ccc(C(F)(F)F)cc1)N=2,5.38 µM,21.1 µM,3.77 µM,16.2 µM,1.61 µM,11.3 µM,5.08 µM,15.3 µM,2.04 µM,14 µM,1.54 µM,11.2 µM,1.37 µM,12.3 µM,2.05 µM,9.04 µM,,
c1ccc2c(c1)Cc1c(Cc3csc4ccccc34)ccc3cccc-2c13,,> 100 µM,,> 100 µM,,> 100 µM,,> 100 µM,,,,,,> 100 µM,,> 100 µM,> 100 µM,> 100 µM
COc1ccc(/C=C/C(=O)c2c(-c3ccccc3)nn(C)c(=O)c2N2CCOCC2)cc1,,> 100 µM,,,,> 100 µM,,,,,,> 100 µM,,> 100 µM,,> 100 µM,> 100 µM,> 100 µM
COc1ccc2c(O)c(/C=C3\N=Nc4ncccc43)oc2c1C[C@@H]1CCNC[C@H]1F,0.541 µM,7.59 µM,1.67 µM,4.09 µM,0.307 µM,2.09 µM,1.93 µM,4.04 µM,0.728 µM,2.77 µM,1.39 µM,3.66 µM,0.118 µM,1.21 µM,0.557 µM,2.2 µM,,
CCCCOc1ccc(/C=N/Nc2cc(C)nc3ccc(Br)cc23)cc1,1.86 µM,3.41 µM,2.12 µM,3.73 µM,1.55 µM,2.97 µM,1.47 µM,2.86 µM,1.88 µM,3.51 µM,1.48 µM,2.85 µM,1.77 µM,3.31 µM,1.74 µM,3.2 µM,,
Cc1c2ccncc2c(C)c2c1sc1ccccc12,,26.7 µM,,25.9 µM,,22.6 µM,,50.4 µM,,44.1 µM,,23.1 µM,,15.8 µM,,26.4 µM,,
C#CC1(O)C(COP(=O)(O)OCC2OC(n3cc(F)c(=O)[nH]c3=O)CC2O)OC(n2ccc(N)nc2=O)C1O (centres undefined),,> 100 µM,< 0.01 µM,,< 0.01 µM,> 100 µM,0.0552 µM,5.78 µM,< 0.0133 µM,0.315 µM,< 0.0134 µM,0.199 µM,< 0.01 µM,> 100 µM,< 0.0201 µM,0.74 µM,,
C#C[C@@]1(O)[C@@H](CO)O[C@@H](n2cc(C(F)(F)F)c3c(N)ncnc32)[C@@H]1O,1.53 µM,> 100 µM,0.423 µM,4.24 µM,0.207 µM,8.3 µM,0.913 µM,2.85 µM,0.736 µM,> 100 µM,0.168 µM,0.533 µM,0.363 µM,> 100 µM,0.724 µM,3.56 µM,,
CC(=O)/C(Br)=C/c1ccc(Br)o1,26 µM,> 59.6 µM,19 µM,36.7 µM,4.21 µM,14.6 µM,8.59 µM,23.9 µM,14.8 µM,30 µM,17.4 µM,33.7 µM,2.13 µM,5.89 µM,4.71 µM,13.7 µM,,
C=C1C(=O)O[C@H]2[C@H]1CC/C(COC(=O)/C=C\C(=O)NCc1ccc(Cn3c(=O)sn(CCI)c3=O)cc1)=C\CC[C@@]1(C)O[C@@H]21,11.4 µM,24.7 µM,13.9 µM,27.8 µM,2.26 µM,4.92 µM,11.1 µM,23.4 µM,2.52 µM,6.68 µM,13.9 µM,27 µM,1.93 µM,4.75 µM,6.25 µM,19.7 µM,,
CC[C@H](C)[C@H](NC(=O)[C@H]1CCCCN1C)C(=O)N(C)[C@H](C[C@@H](OC(C)=O)c1cccc(C(=O)N[C@@H](Cc2ccccc2)C[C@H](C)C(=O)O)n1)C(C)C,0.00138 µM and 0.0025 µM,> 25 µM,0.00551 µM and 0.0025 µM,> 25 µM,0.00168 µM,,0.000774 µM and 0.0025 µM,> 25 µM,0.00316 µM and 0.0025 µM,> 25 µM,0.00184 µM and < 0.0025 µM,,0.00225 µM and 0.0025 µM,4.16 µM,< 0.0025 µM,< 0.0025 µM,,
[N-]=[N+]=NCCCn1c2c(c3ccc([N+](=O)[O-])cc3c1=O)C(=O)c1cc(-c3ccccc3)ccc1-2,> 100 µM,> 100 µM,> 100 µM,> 100 µM,> 100 µM,> 100 µM,> 100 µM,> 100 µM,> 100 µM,> 100 µM,> 100 µM,> 100 µM,> 100 µM,> 100 µM,> 100 µM,> 100 µM,,
c1ccc(Oc2ccc(Nc3ncc(-c4ccccc4)o3)cc2)cc1,> 25 µM,> 25 µM,> 25 µM,> 25 µM,> 25 µM,> 25 µM,> 25 µM,> 25 µM,> 25 µM,> 25 µM,> 25 µM,> 25 µM,> 25 µM,> 25 µM,> 25 µM,> 25 µM,,
O=C(N=c1nc(NC(=O)c2ccccc2)ss1)c1ccccc1,,> 100 µM,,> 100 µM,,37.6 µM,,> 100 µM,,,,87.6 µM,,> 100 µM,,76.2 µM,89.1 µM,
CCCCCCCCCCNCCSS(=O)(=O)O,1.72 µM,3.24 µM,1.73 µM,3.19 µM,2.21 µM,4.79 µM,2.4 µM,6.63 µM,1.77 µM,3.69 µM,5.48 µM,19.9 µM,2.01 µM,3.85 µM,0.425 µM,2.64 µM,,
